# The source made the active and inactive calls. No cut-off for these calls is given here.
# Columns and labels:
# HL-60 [1] = experiment: Induction of apoptosis in human HL60 cells assessed as increase in phospho-Bcl-xl levels at 4 uM after 12 hrs; type: functional, cell-based
# HL-60 [2] = experiment: Increase in JNK protein level in human HL60 cells at 4 uM by Western blot; type: functional, cell-based
# HL-60 [3] = experiment: Disruption of mitochondrial membrane potential in human HL60 cells at 4 uM after 12 hrs; type: functional, cell-based
# HL-60 [4] = experiment: Induction of nuclear condensation in human HL60 cells at 4 uM after 24 hrs by Hoechst33342 staining method; type: functional, cell-based
# HL-60 [5] = experiment: Effect on caspase 2 activity in human HL60 cells at 4 uM; type: functional, cell-based
# HL-60 [6] = experiment: Induction of DNA fragmentation in human HL60 cells at 4 uM; type: functional, cell-based; settings: TDE = time-dependent effect
# HL-60 [7] = experiment: Induction of autophagy in human HL60 cells at 4 uM in presence of PI3K inhibitor 3-methyladenine; type: functional, cell-based
# [8] = target: RAC-alpha serine/threonine-protein kinase (Homo sapiens) (UniProt P31749); experiment: Increase in Akt phosphorylation in human HL60 cells at 4 uM after 48 hrs; type: cell-based; settings: HL-60
# HL-60 [9] = experiment: Induction of cell death in human HL60 cells assessed as formation of autophagosomes at 4 uM after 6 hrs; type: functional, cell-based
# HL-60 [10] = experiment: Effect on caspase 8 activity in human HL60 cells at 4 uM; type: functional, cell-based
# HL-60 [11] = experiment: Induction of autophagy in human HL60 cells at 4 uM in presence of PI3K inhibitor LY-294002; type: functional, cell-based
# HL-60 [12] = experiment: Induction of apoptosis in human HL60 cells assessed as increase in phospho-Bad levels at 4 uM after 12 hrs; type: functional, cell-based
# HL-60 [13] = experiment: Increase in intracellular ROS level in human HL60 cells at 4 uM after 12 hrs; type: functional, cell-based
# HL-60 [14] = experiment: Effect on caspase 9 activity in human HL60 cells at 4 uM; type: functional, cell-based
# HL-60 [15] = experiment: Effect on caspase 3 activity in human HL60 cells at 4 uM; type: functional, cell-based
# HL-60 [16] = experiment: Induction of autophagy in human HL60 cells assessed as increase in lipidated microtubule-associated-protein light chain 3 subunit II levels at 4 uM after 3 to 6 hrs; type: functional, cell-based
# HL-60 [17] = experiment: Induction of autophagy in human HL60 cells at 4 uM after 12 hrs by MDC staining; type: functional, cell-based
# HL-60 [18] = experiment: Induction of apoptosis in human HL60 cells assessed as increase in phospho-Bcl2 at 4 uM after 12 hrs; type: functional, cell-based
# HL-60 [19] = experiment: Increase in p38 MAPK protein level in human HL60 cells at 4 uM by Western blot; type: functional, cell-based
# HL-60 [20] = experiment: Cytotoxicity against human HL60 cells; type: functional, cell-based
# HL-60 [21] = experiment: Induction of apoptosis in human HL60 cells assessed as decrease in Bax levels at 4 uM after 12 hrs; type: functional, cell-based
# HL-60 [22] = experiment: Induction of apoptosis in human HL60 cells at 4 uM in presence of 100 uM caspase inhibitor ZVADFMK by Trypan blue exclusion test; type: functional, cell-based
# RAC-alpha serine/threonine-protein kinase (Homo sapiens), sequence (P31749 whole entry): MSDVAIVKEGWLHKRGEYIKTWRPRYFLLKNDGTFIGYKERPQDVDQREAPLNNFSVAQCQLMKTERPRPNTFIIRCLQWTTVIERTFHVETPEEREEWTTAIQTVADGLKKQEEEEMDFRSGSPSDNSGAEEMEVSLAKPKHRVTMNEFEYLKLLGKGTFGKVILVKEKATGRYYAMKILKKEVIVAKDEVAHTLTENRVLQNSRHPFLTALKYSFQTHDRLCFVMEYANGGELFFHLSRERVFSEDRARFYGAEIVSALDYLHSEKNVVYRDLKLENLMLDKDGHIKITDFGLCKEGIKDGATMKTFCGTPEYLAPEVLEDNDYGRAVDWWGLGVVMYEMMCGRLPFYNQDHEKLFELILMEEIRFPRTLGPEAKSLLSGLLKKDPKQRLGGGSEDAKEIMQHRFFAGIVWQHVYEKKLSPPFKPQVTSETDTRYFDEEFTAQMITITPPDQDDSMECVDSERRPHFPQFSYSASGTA
smiles,measurement,setting,value
C=C1C(=O)O[C@@H]2/C=C(/C)[C@@H](OC(C)=O)C[C@H]3O[C@]3(C)C[C@@H](OC(=O)/C(=C/C)CO)[C@@H]12 [EUPALININ A],Activity,HL-60 [1],Active
same,Activity,HL-60 [2],Active
same,Activity,HL-60 [3],Active
same,Activity,HL-60 [4],Active
same,Activity,HL-60 [5],Active
same,Activity,HL-60 [6],tde
same,Activity,HL-60 [7],Active
same,Activity,[8],Active
same,Activity,HL-60 [9],Active
same,Activity,HL-60 [10],Active
same,Activity,HL-60 [11],Active
same,Activity,HL-60 [12],Active
same,Activity,HL-60 [13],Active
same,Activity,HL-60 [14],Active
same,Activity,HL-60 [15],Active
same,Activity,HL-60 [16],Active
same,Activity,HL-60 [17],Active
same,Activity,HL-60 [18],Active
same,Activity,HL-60 [19],Active
same,IC50,HL-60 [20],2400 nM
same,Activity,HL-60 [21],Active
same,Activity,HL-60 [22],inactive
